This is an account of results in patent US20230392126A1, “TISSUE ORGANOIDS” (priority 2016, published 2023).

The conditions of data set [1]: WT GGBP; read-out: glucose binding affinity (Kd); cited from earlier work.
Another data set addresses T1, GLP-1 receptor (Mus musculus, UniProt O35659).
T1 construct: host or cells: living mice (endogenous receptor)
T1 sequence (O35659 22-463): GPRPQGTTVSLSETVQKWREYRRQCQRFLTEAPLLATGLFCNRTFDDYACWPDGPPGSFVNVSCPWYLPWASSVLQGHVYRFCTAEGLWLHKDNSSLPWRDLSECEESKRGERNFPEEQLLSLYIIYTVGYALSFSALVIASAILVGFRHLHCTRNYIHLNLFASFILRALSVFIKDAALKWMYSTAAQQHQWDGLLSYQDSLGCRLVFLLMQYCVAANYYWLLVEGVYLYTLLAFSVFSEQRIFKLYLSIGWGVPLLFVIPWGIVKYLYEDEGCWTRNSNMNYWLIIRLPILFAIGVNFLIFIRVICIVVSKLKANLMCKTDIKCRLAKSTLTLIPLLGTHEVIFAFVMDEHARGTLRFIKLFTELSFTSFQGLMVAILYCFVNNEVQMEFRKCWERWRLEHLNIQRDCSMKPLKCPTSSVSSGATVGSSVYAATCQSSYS
The following applies: mice; cited from earlier work.

The conditions of data set [2]: i.p., mice; cited from earlier work.
Data set [3] relates to epidermal progenitor cells. In words: Suicide gene-induced cell death in epidermal progenitor cells upon prodrug treatment. The format is cell-based. To be noted: ganciclovir and 5-fluorocytosine, respectively; data not shown. From the text:
To test this possibility, a Rosa26 targeting vector encoding phenylalanine ammonia lyase (PAL) (SEQ ID NO: 51) together with inducible “suicide” genes HSV-TK (Herpes Simplex Virus Thymidine Kinase) (SEQ ID NO: 52) and yCD (yeast cytosine deaminase) (SEQ ID NO: 53) was used for epidermal progenitor cell transfection.

Data set [4] is described as follows: Acute drug overdose test: cocaine-induced lethality. The format is in vivo, mouse. The protocol: For all behavioral experiments except where noted, C57BL/6J mice were used. Roughly equal numbers of adult male and female mice were group-housed until surgery. Mice were maintained under controlled temperature and humidity conditions on a 12 h:12 h light:dark cycle (lights on at 7:00). Water and food were available ad libitum. Mice weighed around 25-30 g at the beginning of the experiments. All procedures followed National Institutes of Health Guide for the Care and Use of Laboratory Animal and were approved by the University of Chicago Institutional Animal Care and Use Committee.
Drug: Cocaine HCl and methamphetamine HCl (Sigma-Aldrich, Saint Louis, MO) were dissolved in sterile saline and delivered intraperitoneally at appropriates doses in a volume of 10 mL/kg. Ethanol (Sigma-Aldrich, Saint Louis, MO, 95%, density=0.816) was prepared in 20% (v/v) diluted in sterile saline and delivered intraperitoneally at appropriate doses. Vehicle (sterile saline) was intraperitoneally administered at 10 mL/kg as a control.
Acute drug overdose test: Two weeks after grafting surgery, 4 groups of GhBChE and 4 groups of GWT mice (n=8 each in each group) received i.p. injections of cocaine at […]. As a control, 4 groups of GhBChE and 4 groups of GWT mice (n=8 each) received i.p. injections of methamphetamine (METH) at 34, 68 (LD50), 100, and 160 mg/kg. Two each of GhBChE and GWT mice with CD1 mice as hosts were also used to videotape acute cocaine (80 mg/kg) induced behaviors. Mice were monitored for 2 h following injection and percent of cocaine- and METH-induced lethality was calculated.
To first determine whether engrafting hBChE-expressing cells protects mice from acute systemic toxicity of cocaine, we delivered different doses of cocaine to grafted mice and calculated the lethality rates of cocaine. […] Parallel testing was conducted to test the toxicity of a related stimulant METH (methamphetamine) in GhBChE and GWT mice.

Data set [5] in a line: PKU mouse model (PAH mutant, BTBR strain) grafted with PAL-expressing cells: plasma phenylalanine, fur color, tissue enzyme activity. The format is in vivo. To be noted: PAH mutant mice, ~2 mM plasma phenylalanine. An excerpt:
The mouse model of PKU has been developed by ENU (N-ethyl-N-nitrosourea)-mediated mutagenesis in BTBR strain (Jax strain 002232).
With establishment of skin engraftment in PAH mutant mice, plasma phenylalanine level are monitored. Three weeks post skin grafting with PAL expressing cells or control cells (BTBR epidermal progenitor cells treated with control vectors), blood samples are collected from the tail clipping biweekly for up to 30 weeks. Plasma is separated by centrifugation. Phenylalanine concentration is determined by established fluorometric protocol. Lowering of phenylalanine level restores melanin biosynthesis, and leads to a change of fur color. Potential alteration in fur coat color is recorded weekly for all the grafted animals. […] Thus, two different cohorts of animals (male and female) are established to test the potential gender-dependent effect of cutaneous gene therapy in vivo.
At the endpoint of the experiment (30 weeks), grafted animals are euthanized and tissue samples (grafted skin, host skin, and liver) are collected. Presence of enzyme activity in the tissues is determined by PAH and PAL activity assay.
A complete phenotypic change from brown hair coat to dark black fur is also expected. For tissue enzymatic analysis, PAL activity detection in grafted skin is expected but not in other tissues. PAH activity is absent in the liver of the mutant mice. […]

Data set [6] is described as follows: Phenylalanine clearance by PAL-expressing mouse epidermal keratinocytes in vitro. The format is cell-based. An excerpt: Therefore, using CRISPR-mediated genome editing with epidermal progenitor cell technology the possibility for treatment of PKU by cutaneous expression of PAL is investigated.
A complete phenotypic change from brown hair coat to dark black fur is also expected. For tissue enzymatic analysis, PAL activity detection in grafted skin is expected but not in other tissues. PAH activity is absent in the liver of the mutant mice. Female mice are more resistant to PKU therapy. If this is the case for cutaneous gene therapy, female PAH mutant mice are tested to determine whether they require larger skin grafts or more grafts than male mice for correction of hyperphenylalaninemia.

Data set [7] deals with mouse epidermal stem cells. In words: Cell proliferation and differentiation of engineered mouse epidermal cells in vitro (cell cycle FACS, calcium shift western blot). The format is cell-based. The method, then:
Primary human neonatal epidermal keratinocytes were obtained from Thermo Fischer® (C0015C), and cultured with Epilife® medium (Thermo Fischer, M-EPICF-500) with manufacturer's recommended procedures. Calcium shift was performed to induce differentiation of primary keratinocytes by increasing the calcium concentration in culture media to 1.5 mM.
Propidium iodide (PI) staining followed by flow cytometry were used to determine the effect of cell cycle profiles. Mouse and human epidermal cells were cultured in two 6 cm cell culture dish for 24 hours, respectively. Cells were trypsinized, and 1×10^5 cells from each dish were collected, followed by one PBS wash. […] After staining, the cells were analyzed immediately using flow cytometer BD FACSCanto™ II (BD Biosciences, San Jose, CA) with an excitation wavelength at 488 nm and emission at 585 nm. DNA content and histograms of cell cycle distribution were analyzed using FlowJo™ software, version 10 (FLOWJO LLC, OR).
Western blotting was performed as described previously (Blanpain et al.). […] Visualization and quantification was carried out with the LI-COR Odyssey® scanner and software (LI-COR Biosciences).
Propidium iodide (PI) staining followed by flow cytometry were used to determine the effect of cell cycle profiles. […] DNA content and histograms of cell cycle distribution were analyzed using FlowJo™ software, version 10 (FLOWJO LLC, OR). […]
Background: A western blot detects proteins with antibodies after separation by electrophoresis.

As usually defined, the Kd is the concentration at which binding is half-saturated. On to “WT (wild type) GGBP: wild type glucose/galactose-binding protein of E. coli periplasm”, for which the dissociation constant Kd in data set [1] was 200 nM. As for Exendin-4, in the data set with GLP-1 receptor, the “effect on nicotine-induced behaviours” value was “attenuates nicotine-induced locomotor stimulation, accumbal dopamine release, and the expression of conditioned place preference in mice”. The term LD50 denotes the dose expected to kill half of the subjects tested. With `CN[C@@H](C)Cc1ccccc1` [METH, methamphetamine], in data set [2], the median lethal dose (LD50) is 68 mg/kg.

For “HSV-TK: inducible suicide gene, Herpes Simplex Virus Thymidine Kinase (SEQ ID NO: 52), prodrug ganciclovir”, in data set [3], the “cell death upon prodrug treatment” value is “efficiently induced cell death upon treatment with prodrugs”. Turning to `COC(=O)[C@H]1[C@@H](OC(=O)c2ccccc2)C[C@@H]2CC[C@H]1N2C` [cocaine], the lethality result in data set [4] (80 mg/kg i.p., control mice grafted with WT epidermal cells (GWT)) was “roughly 50%”; in data set [4] (120 mg/kg i.p., GWT mice), 100%; in data set [4] (160 mg/kg i.p., GWT mice) it was 100%. With “PAL: Phenylalanine ammonia-lyase (SEQ ID NO: 51) expressed in epidermal keratinocytes”, the effect on hyperphenylalaninemia entry in data set [5] is recorded as “sufficient for a complete reversal of hyperphenylalaninemia”. The “degradation of phenylalanine in culture media compared with PAH” value in data set [6] (lentivirus-infected mouse epidermal keratinocytes, preliminary) is reported as “much faster than cells expressing PAH”. Moreover, the “phenylalanine removal by grafts” value in data set [6] (two 1 cm^2 epidermal grafts, ~2×10^7 metabolically active cells) is reported as 57 pmol of phenylalanine per day. Moreover, in data set [7], the “effect of expression on cell proliferation / differentiation in vitro” value is “does not significantly alter cell proliferation or differentiation in vitro”.
